Measurements published in patent US9695155B2, “Herbicidal substituted pyrimidinyloxy benzene compounds” (E. I. DU PONT DE NEMOURS AND COMPANY, priority 2013, dated 2017).

Legend:
[1] = test system: velvetleaf; assay: Test C postemergence; assay type: in vivo, Abutilon theophrasti
Source text: (§1) Seeds of plant species selected from blackgrass (Alopecurus myosuroides), Italian ryegrass (Lolium multiflorum), wheat, winter (winter wheat, Triticum aestivum), galium (catchweed bedstraw, Galium aparine), corn (Zea mays), large (Lg) crabgrass (Digitaria sanguinalis), giant foxtail (Setaria faberii), johnsongrass (Sorghum halepense), lambsquarters (Chenopodium album), morningglory (Ipomoea coccinea), yellow nutsedge (Cyperus esculentus), pigweed (Amaranthus retroflexus), ragweed (common ragweed, Ambrosia elatior), soybean (Glycine max), barnyardgrass (Echinochloa crus-galli), oilseed rape (Brassica napus), waterhemp (common waterhemp, Amaranthus rudis), kochia (Kochia scoparia), wild oat (Avena fatua), surinam grass (Brachiaria decumbens), foxtail, green (green foxtail, Setaria viridis), goosegrass (Eleusine indica), bromegrass, downy (downy bromegrass, Bromus tectorum), nightshade (eastern black nightshade, Solanum ptycanthum), cocklebur (common cocklebur, Xanthium strumarium), cupgrass, woolly (woolly cupgrass, Eriochloa villosa), bermudagrass (Cynodon dactylon), sunflower, (common oilseed sunflower, Helianthus annuus), Russian thistle (Salsola kali), and velvetleaf (Abutilon theophrasti) were planted into a blend of loam soil and sand and treated preemergence with test chemicals formulated in a non-phytotoxic solvent mixture which included a surfactant.
(§2) At the same time, plants selected from these crop and weed species and also barley, winter (winter barley, Hordeum vulgare), windgrass (Apera spica-venti), chickweed (common chickweed, Stellaria media), deadnettle (henbit deadnettle, Lamium amplexicaule), and canarygrass (littleseed canarygrass, Phalaris minor) were planted in pots containing Redi-Earth® planting medium (Scotts Company, 14111 Scottslawn Road, Marysville, Ohio 43041) comprising spaghnum peat moss, vermiculite, wetting agent and starter nutrients and treated with postemergence applications of test chemicals formulated in the same manner. Plants ranged in height from 2 to 18 cm (1- to 4-leaf stage) for postemergence treatments. Treated plants and controls were maintained in a greenhouse for 13 to 15 days, after which time all species were compared to controls and visually evaluated. Plant response ratings, summarized in Table C, are based on a scale of 0 to 100 where 0 is no effect and 100 is complete control. A dash (-) response means no test result.

[2] = test system: barnyardgrass; assay: Test A postemergence; assay type: in vivo, Echinochloa crus-galli
Summary of the method: (§3)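 Injury scores run from 0, no effect, to 100, complete control, judged by eye against untreated plants roughly 10 days after treatment. Chemicals carried a surfactant in a non-phytotoxic solvent and went onto loam–sand soil preemergence or onto one- to two-leaf seedlings postemergence.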

[3] = test system: velvetleaf; assay: Test A preemergence; assay type: in vivo, Abutilon theophrasti; settings: for Velvetleaf plant response rating: 0 to 100 scale, 0 no effect, 100 complete control, approx. 10 days
Summary of the method: as §3

[4] = test system: oilseed rape; assay: Test C postemergence; assay type: in vivo, Brassica napus
Source text: as §1, §2

[5] = test system: sedge, umbrella; assay: Test B flooded paddy test; assay type: in vivo, Cyperus difformis; settings: Flood, 250 g ai/ha, 0 to 100 scale where 0 is no effect and 100 is complete control
Summary of the method: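 Scores from 0 (no effect) to 100 (complete control) are visual comparisons with controls, taken 13 to 15 days after compound was applied into floodwater 3 cm deep around 2-leaf plants.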

[6] = test system: chickweed; assay: Test C postemergence; assay type: in vivo, Stellaria media
Summary of the method: (§4)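 Injury was assessed visually against controls 13 to 15 days after application, with 0 meaning no effect and 100 full control; missing entries are shown as a dash. Preemergence sprays hit seeded loam–sand soil, postemergence sprays hit 1- to 4-leaf plants.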

[7] = test system: oilseed rape; assay: Test C preemergence; assay type: in vivo, Brassica napus; settings: for Oilseed Rape plant response rating: preemergence
Summary of the method: as §4

[8] = test system: waterhemp; assay: Test C preemergence; assay type: in vivo, Amaranthus rudis; settings: for Waterhemp plant response rating: preemergence
Summary of the method: as §4

[9] = test system: soybean; assay: Test C preemergence; assay type: in vivo, Glycine max; settings: for Soybean plant response rating: preemergence
Summary of the method: as §4

[10] = test system: johnsongrass; assay: Test C preemergence; assay type: in vivo, Sorghum halepense; settings: for Johnsongrass plant response rating: preemergence
Summary of the method: as §4

[11] = test system: blackgrass; assay: Test A postemergence; assay type: in vivo, Alopecurus myosuroides; settings: 0 to 100 scale, 0 no effect, 100 complete control
Summary of the method: as §3

[12] = Postemergence, 31 g ai/ha, scale 0 to 100 (0 no effect, 100 complete control), 13 to 15 days
[13] = Postemergence, 62 g ai/ha, scale 0 to 100 (0 no effect, 100 complete control)
[14] = 125 g ai/ha, 0 to 100 scale where 0 is no effect and 100 is complete control
[15] = 500 g ai/ha, 0 to 100 scale, 0 no effect, 100 complete control
[16] = 1000 g ai/ha, 0 to 100 scale, 0 no effect, 100 complete control
[17] = 8 g ai/ha, postemergence, 0 is no effect, 100 is complete control
[18] = 16 g ai/ha, postemergence, 0 is no effect, 100 is complete control
[19] = 31 g ai/ha, postemergence, visual rating, scale 0 to 100 (0 no effect, 100 complete control), 13 to 15 days
[20] = 16 g ai/ha, scale 0 to 100 (0 no effect, 100 complete control)
[21] = 125 g ai/ha, scale 0 (no effect) to 100 (complete control)
[22] = Preemergence, 62 g ai/ha, scale 0 to 100, 0 no effect, 100 complete control

Row | Compound | Plant response rating (0 to 100), Velvetleaf ([1]; 125 g ai/ha, postemergence) | Plant response rating (0 to 100), Velvetleaf ([1]; 250 g ai/ha, postemergence) | Plant response rating, Velvetleaf [1, 12] | Plant response rating, Velvetleaf [1, 13] | Plant response rating, Barnyardgrass [2, 14] | Plant response rating, Barnyardgrass [2, 15] | Plant response rating, Velvetleaf [3, 14] | Velvetleaf plant response rating ([3]; 500 g ai/ha) | Plant response rating (0 to 100), Oilseed Rape ([4]; 125 g ai/ha, postemergence) | Plant response rating (0 to 100), Oilseed Rape ([4]; 250 g ai/ha, postemergence) | Plant response rating, Oilseed Rape [4, 12] | Plant response rating, Oilseed Rape [4, 13] | Plant response rating, Sedge, Umbrella [5] | Plant response rating (0 to 100), Chickweed ([6]; 125 g ai/ha, postemergence) | Plant response rating (0 to 100), Chickweed ([6]; 250 g ai/ha, postemergence) | Plant response rating, Chickweed [6, 12] | Plant response rating, Chickweed [6, 13] | Plant response rating, Barnyardgrass [2, 16] | Velvetleaf plant response rating ([3]; 1000 g ai/ha) | further results
1 | N#Cc1cccc(Oc2ncc(F)cn2)c1-n1cc(Br)cn1 [Compound 62] | 75 | 85 | 20 | 20 | 90 | 100 | 50 | 100 | 60 | 75 | 20 | 20 | 80 | 75 | 90 | 50 | 50 |  |  | 
2 | Clc1cnc(Oc2cccc(Br)c2-n2cc(Br)cn2)nc1 [Compound 65] | 65 |  | 50 | 55 |  |  |  |  | 90 |  | 25 | 60 | 95 | 98 |  | 50 | 70 | 100 | 100 | Chickweed plant response rating ([6]; 16 g ai/ha, postemergence, visual rating, scale 0 to 100 (0 no effect, 100 complete control), 13 to 15 days): 60
3 | N#Cc1cccc(Oc2ncc(Cl)cn2)c1-n1cnc(Br)c1 [Compound 74] | 50 | 65 | 30 | 35 | 90 | 90 | 70 | 100 | 40 | 65 | 35 | 40 | 70 | 50 | 50 | 25 | 30 |  |  | 
4 | CC(=NO)c1cn(-c2c(Br)cccc2Oc2ncc(Cl)cn2)nn1 [Compound 115] |  |  |  |  |  |  |  |  |  |  |  |  | 20 |  |  |  |  | 90 | 100 | Plant response rating (0 to 100), Velvetleaf [1, 17]: 5; Plant response rating (0 to 100), Velvetleaf [1, 18]: 5; Plant response rating (0 to 100), Oilseed Rape [4, 17]: 0; Plant response rating (0 to 100), Oilseed Rape [4, 18]: 0; Plant response rating (0 to 100), Chickweed ([6]; 4 g ai/ha, postemergence, 0 is no effect, 100 is complete control): 0; Plant response rating (0 to 100), Chickweed [6, 17]: 5; Plant response rating (0 to 100), Chickweed [6, 18]: 5
5 | Fc1cccc(Oc2ncc(Cl)cn2)c1-n1cc(Br)cn1 [Compound 178, 2-[2-(4-bromo-1H-pyrazol-1-yl)-3-fluorophenoxy]-5-chloropyrimidine] |  |  |  |  |  |  |  |  |  |  |  |  |  |  |  |  |  |  |  | Velvetleaf plant response rating [1, 19]: 70; pest or weed control at 16 g/ha ([1]; Abutilon theophrasti, post-emergence, 16 g ai/ha, postemergence, 0 is no effect, 100 is complete control, read-out: Plant response rating (0 to 100), Velvetleaf): 50%; pest or weed control at 125 g/ha ([1]; Abutilon theophrasti, post-emergence, 125 g ai/ha, postemergence, visual rating, scale 0 to 100 (0 no effect, 100 complete control), read-out: Plant response rating, Velvetleaf): 100%; pest or weed control at 62 g/ha ([1]; Abutilon theophrasti, post-emergence, Postemergence, 62 g ai/ha, scale 0 to 100 (0 no effect, 100 complete control), read-out: Plant response rating, Velvetleaf): 85%; pest or weed control at 125 g/ha ([2]; Echinochloa crus-galli, post-emergence, 240 h, 125 g ai/ha, 0 to 100 scale where 0 is no effect and 100 is complete control, read-out: Barnyardgrass plant response rating): 70%; pest or weed control at 500 g/ha ([2]; Echinochloa crus-galli, post-emergence, 240 h, 500 g ai/ha, 0 to 100 scale where 0 is no effect and 100 is complete control, read-out: Plant response rating, Barnyardgrass): 100%; Velvetleaf plant response rating (0 to 100 scale) ([3]; 125 g ai/ha): 80; pest or weed control at 500 g/ha ([3]; Abutilon theophrasti, pre-emergence, 240 h, 500 g ai/ha, 0 to 100 scale where 0 is no effect and 100 is complete control, read-out: Velvetleaf plant response rating): 100%; Oilseed Rape plant response rating [4, 19]: 85; plant injury at 16 g/ha ([4]; Brassica napus, post-emergence, 16 g ai/ha, postemergence, 0 is no effect, 100 is complete control, read-out: Plant response rating (0 to 100), Oilseed Rape): 70%; plant injury at 125 g/ha ([4]; Brassica napus, post-emergence, 125 g ai/ha, postemergence, visual rating, scale 0 to 100 (0 no effect, 100 complete control), read-out: Plant response rating, Oilseed Rape): 98%; plant injury at 62 g/ha ([4]; Brassica napus, post-emergence, Postemergence, 62 g ai/ha, scale 0 to 100 (0 no effect, 100 complete control), read-out: Plant response rating, Oilseed Rape): 90%; pest or weed control at 250 g/ha ([5]; Cyperus difformis, read-out: Plant response rating, Sedge, Umbrella): 0%; pest or weed control at 16 g/ha ([6]; Stellaria media, post-emergence, 16 g ai/ha, postemergence, 0 is no effect, 100 is complete control, read-out: Plant response rating (0 to 100), Chickweed): 40%; pest or weed control at 31 g/ha ([6]; Stellaria media, post-emergence, 31 g ai/ha, postemergence, visual rating, scale 0 to 100 (0 no effect, 100 complete control), 13 to 15 days, read-out: Chickweed plant response rating): 50%; pest or weed control at 125 g/ha ([6]; Stellaria media, post-emergence, 125 g ai/ha, postemergence, visual rating, scale 0 to 100 (0 no effect, 100 complete control), read-out: Plant response rating, Chickweed): 80%; pest or weed control at 62 g/ha ([6]; Stellaria media, post-emergence, Postemergence, 62 g ai/ha, scale 0 to 100 (0 no effect, 100 complete control), read-out: Plant response rating, Chickweed): 65%
6 | Fc1cccc(Oc2ncc(Cl)cn2)c1-n1cc(OCC(F)(F)F)cn1 [Compound 270] |  |  |  |  |  |  |  |  |  |  |  |  | 90 |  |  |  |  |  |  | Oilseed Rape plant response rating [7, 20]: 95; Oilseed Rape plant response rating [7, 21]: 100; Plant response rating, Oilseed Rape [7, 22]: 100; Waterhemp plant response rating [8, 20]: 80; Waterhemp plant response rating [8, 21]: 100; Plant response rating, Waterhemp [8, 22]: 100; Plant response rating, Barnyardgrass ([2]; 31 g ai/ha, 0 to 100 scale, 0 no effect, 100 complete control): 10; Plant response rating, Barnyardgrass ([2]; 125 g ai/ha, 0 to 100 scale, 0 no effect, 100 complete control): 80; Soybean plant response rating [9, 20]: 0; Soybean plant response rating [9, 21]: 85; Plant response rating, Soybean [9, 22]: 25; Johnsongrass plant response rating [10, 20]: 0; Johnsongrass plant response rating [10, 21]: 95; Plant response rating, Johnsongrass [10, 22]: 40; Plant response rating, Blackgrass ([11]; 31 g ai/ha): 10; Plant response rating, Blackgrass ([11]; 125 g ai/ha): 40
